Results from ChEMBL document CHEMBL4196089, “Design, synthesis, biological evaluation and in vivo testing of dual phosphodiesterase 5 (PDE5) and histone deacetylase 6 (HDAC6)-selective inhibitors for the treatment of Alzheimer's disease” (Eur J Med Chem, 2018).

Assays:
[1] = biological target: T1, Protein deacetylase HDAC6 (Homo sapiens, UniProt Q9UBN7); experiment: Inhibition of full length human recombinant N-terminal GST-tagged HDAC6 expressed in baculovirus infected sf9 cells using fluorogenic HDAC substrate 3 after 30 mins by fluorescence assay
T1 sequence (Q9UBN7 whole entry): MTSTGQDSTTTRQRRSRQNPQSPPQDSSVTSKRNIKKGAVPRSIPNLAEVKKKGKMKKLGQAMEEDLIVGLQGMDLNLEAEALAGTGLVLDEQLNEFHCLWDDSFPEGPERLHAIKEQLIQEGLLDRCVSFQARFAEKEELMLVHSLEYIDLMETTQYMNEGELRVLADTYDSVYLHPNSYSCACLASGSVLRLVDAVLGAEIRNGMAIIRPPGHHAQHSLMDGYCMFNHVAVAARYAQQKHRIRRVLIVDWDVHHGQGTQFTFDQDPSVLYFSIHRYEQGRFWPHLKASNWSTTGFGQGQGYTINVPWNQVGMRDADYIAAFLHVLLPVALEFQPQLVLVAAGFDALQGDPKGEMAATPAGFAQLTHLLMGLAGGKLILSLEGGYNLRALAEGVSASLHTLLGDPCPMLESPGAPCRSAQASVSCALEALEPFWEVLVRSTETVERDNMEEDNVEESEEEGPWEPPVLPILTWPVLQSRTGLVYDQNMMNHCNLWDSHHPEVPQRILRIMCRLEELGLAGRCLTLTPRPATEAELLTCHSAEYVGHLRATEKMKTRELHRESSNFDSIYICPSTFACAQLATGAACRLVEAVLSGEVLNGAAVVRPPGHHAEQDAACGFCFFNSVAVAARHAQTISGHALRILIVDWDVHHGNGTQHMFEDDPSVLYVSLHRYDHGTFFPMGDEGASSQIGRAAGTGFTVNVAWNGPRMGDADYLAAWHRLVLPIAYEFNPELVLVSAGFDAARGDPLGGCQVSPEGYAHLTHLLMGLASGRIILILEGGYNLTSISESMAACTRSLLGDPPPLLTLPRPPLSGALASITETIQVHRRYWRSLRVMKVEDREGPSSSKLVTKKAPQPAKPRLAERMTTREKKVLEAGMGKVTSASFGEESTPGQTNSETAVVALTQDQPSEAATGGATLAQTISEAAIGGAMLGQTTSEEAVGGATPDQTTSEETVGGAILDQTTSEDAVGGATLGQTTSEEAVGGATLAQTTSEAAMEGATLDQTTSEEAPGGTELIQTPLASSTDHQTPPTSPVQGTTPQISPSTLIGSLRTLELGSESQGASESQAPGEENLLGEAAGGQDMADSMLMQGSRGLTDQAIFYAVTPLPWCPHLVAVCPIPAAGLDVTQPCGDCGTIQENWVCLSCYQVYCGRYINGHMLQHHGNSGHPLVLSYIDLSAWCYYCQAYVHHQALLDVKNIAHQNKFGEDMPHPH

[2] = Effective permeability of the compound at 10 uM after 18 hrs by LC-MS/MS based PAMPA; format: ADME; conditions: read-out: Peff
cells [3] = conditions: Homo sapiens, SH-SY5Y, 2 h, read-out: FC
[4] = biological target: cGMP-specific 3',5'-cyclic phosphodiesterase (Homo sapiens, UniProt O76074); experiment: Inhibition of full length human recombinant N-terminal GST-tagged PDE5A1 expressed in baculovirus infected sf9 cells using cGMP as substrate after 30 mins by fluorescence assay
Histone deacetylase 1 = Histone deacetylase 1 (Homo sapiens, UniProt Q13547); experiment: Inhibition of full length human recombinant C-terminal FLAG/His-tagged HDAC1 expressed in baculovirus infected sf9 cells using fluorogenic HDAC substrate 3 after 30 mins by fluorescence assay
cells [5] = conditions: Homo sapiens, SH-SY5Y, 2 h, read-out: FC; remark: listed apart in the source
cells [6] = conditions: Homo sapiens, SH-SY5Y, 2 h, read-out: FC; remark: listed apart in the source
Histone deacetylase 2 = Histone deacetylase 2 (Homo sapiens, UniProt Q92769); experiment: Inhibition of full length human recombinant C-terminal His-tagged HDAC2 expressed in baculovirus infected sf9 cells using fluorogenic HDAC substrate 3 after 30 mins by fluorescence assay
[7] = Cytotoxicity against human THLE2 cells after 72 hrs by vialight cell proliferation assay; format: cell-based, THLE-2; conditions: read-out: LC50

Chain of Histone deacetylase 2 (Q92769 whole entry): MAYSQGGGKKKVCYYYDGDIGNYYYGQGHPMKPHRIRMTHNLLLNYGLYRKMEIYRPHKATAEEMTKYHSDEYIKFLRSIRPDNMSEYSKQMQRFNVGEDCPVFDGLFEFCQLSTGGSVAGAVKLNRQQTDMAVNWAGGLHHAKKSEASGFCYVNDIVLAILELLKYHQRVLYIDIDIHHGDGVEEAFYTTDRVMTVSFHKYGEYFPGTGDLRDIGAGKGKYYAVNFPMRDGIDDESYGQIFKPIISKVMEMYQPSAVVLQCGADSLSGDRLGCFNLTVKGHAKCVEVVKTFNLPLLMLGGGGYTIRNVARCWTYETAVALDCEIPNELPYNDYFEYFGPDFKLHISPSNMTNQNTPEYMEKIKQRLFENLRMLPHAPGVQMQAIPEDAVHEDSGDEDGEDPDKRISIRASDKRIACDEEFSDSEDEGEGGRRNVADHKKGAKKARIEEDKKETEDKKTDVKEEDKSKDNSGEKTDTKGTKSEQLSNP
Chain of Histone deacetylase 1 (Q13547 whole entry): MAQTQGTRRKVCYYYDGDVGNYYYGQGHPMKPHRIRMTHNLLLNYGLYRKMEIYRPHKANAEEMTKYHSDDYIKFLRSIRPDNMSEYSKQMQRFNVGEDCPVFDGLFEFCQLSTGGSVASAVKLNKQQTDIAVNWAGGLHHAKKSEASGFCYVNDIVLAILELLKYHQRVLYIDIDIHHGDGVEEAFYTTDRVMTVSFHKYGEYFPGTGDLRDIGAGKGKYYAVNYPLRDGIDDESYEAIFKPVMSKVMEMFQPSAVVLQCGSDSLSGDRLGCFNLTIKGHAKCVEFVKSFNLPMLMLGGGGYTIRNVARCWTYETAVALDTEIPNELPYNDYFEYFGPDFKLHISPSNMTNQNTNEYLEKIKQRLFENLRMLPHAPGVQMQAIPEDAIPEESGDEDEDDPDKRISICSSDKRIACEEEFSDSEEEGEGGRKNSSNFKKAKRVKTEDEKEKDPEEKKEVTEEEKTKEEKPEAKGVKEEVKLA

SMILES: CCCc1nc(C)c2c(=O)[nH]c(-c3cc(-c4ccc(C(=O)NO)cc4)ccc3OCC)nn12
- IC50 [1]: 326 nM
- Papp at 18 h, 10 µM [2]: 2.7 ×10⁻⁶ cm/s
- fold induction at 0.5 µM (cells [3]): 2.3
- IC50 [4]: 2 nM
- IC50 (Histone deacetylase 1): 4100 nM
- fold induction at 1 µM (cells [5]): 2.8
- fold induction at 0.1 µM (cells [6]): 1.3
- IC50 (Histone deacetylase 2): > 20000 nM
- CC50 at 72 h [7]: > 100000 nM
